Measured values: publication PMC5053523, “In Vitro Antibacterial Activity of Rhodanine Derivatives against Pathogenic Clinical Isolates” (PLoS ONE, 2016)
Converted amounts (≈) assume the structure as drawn. Where two headings read alike, the source gives them in different places.

Legend:
[1] = test system: Acinetobacter baumannii; test: MIC with/without sub-MIC colistin, Acinetobacter baumannii; type: cell-based
Method in brief: (§1)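 Read-out is the MIC, determined with sub-inhibitory colistin or polymixin B nonapeptide co-applied to permeabilize the outer membrane of Gram-negative bacteria.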

[2] = test system: Escherichia coli O157:H7; test: MIC with/without sub-MIC colistin, Escherichia coli O157:H7; type: cell-based
Method in brief: as §1

[3] = test system: Clostridium difficile; test: MIC against Clostridium difficile, anaerobic broth dilution; type: cell-based; details: Clostridioides difficile
Method in brief: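 Clinical C. difficile isolates grown anaerobically 48 h at 37 °C, suspended to 0.5 McFarland and diluted 1:300 in pre-reduced supplemented Brain Heart Infusion broth. Compounds serially diluted; plates incubated anaerobically at 37 °C for 48 h. MIC = lowest concentration with no visible growth.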

[4] = test system: vancomycin resistant enterococci (VRE) E. faecium; test: Broth microdilution MIC/MBC, VRE E. faecium; type: cell-based; details: for MIC: read-out: MIC
[5] = test system: Vancomycin Resistant Staphylococcus aureus (VRSA); test: Broth microdilution MIC/MBC, VRSA; type: cell-based; details: for MBC / MIC: VRSA
[6] = test system: Candida albicans; test: MIC against Candida albicans; type: cell-based; details: table prints none, read-out: MIC
[7] = test system: B. cereus; test: Broth microdilution MIC/MBC, B. cereus; type: cell-based; details: Bacillus cereus; for MBC: read-out: MBC; for MIC: read-out: MIC
Description: The broth microdilution technique was used, followed by subculturing on agar plates that were rhodanine—free.

[8] = test system: B. licheniformis; test: Broth microdilution MIC/MBC, B. licheniformis; type: cell-based; details: Bacillus licheniformis; for MBC: read-out: MBC; for MIC: read-out: MIC
[9] = test system: Bacillus Strains; test: Broth microdilution MIC50/MIC90 and MIC range, Bacillus strains panel; type: cell-based, Bacillus spp.; details: 10 Bacillus strains
Description: The broth microdilution technique was used, followed by subculturing on agar plates that were rhodanine—free. […] The MICs reported represent the lowest concentration of each compound necessary to inhibit bacterial growth and the MBCs represent the lowest concentration required to reduce the initial bacterial inoculum by ≥ 99.9%.

[10] = test system: Escherichia coli O157:H7; test: MIC with/without PMBN, Escherichia coli O157:H7; type: cell-based
Method in brief: as §1

[11] = test system: Mycobacterium smegmatis; test: Broth microdilution MIC/MBC, Mycobacterium smegmatis; type: cell-based; details: Mycolicibacterium smegmatis, ATCC14468, M. Smegmatis ATCC 14468
[12] = test system: Klebsiella pneumoniae; test: MIC with/without sub-MIC colistin, Klebsiella pneumoniae; type: cell-based
Method in brief: as §1

[13] = test system: Escherichia coli Δ acrAB; test: MIC against E. coli 1411 and AcrAB efflux pump deficient E. coli SM1411Δ acrAB; type: cell-based
Method in brief: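 Sub-MIC colistin or PMBN added to broth MIC tests of rhodanines and reference antibiotics against Gram-negative strains; AcrAB efflux-deficient E. coli SM1411ΔacrAB also tested.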

[14] = E. faecium HM 968 Strain ERV102
[15] = E. faecium NR31914 Strain E0120
[16] = E. faecium Patient #1–1 NR-31903
[17] = NRS201, B. cereus NRS 201 NR-2488
[18] = NCIB9375, B. licheniformis Gibson 46 (NCIB 9375) NR-2494
[19] = NRS712, B. licheniformis NRS 712 NR-2499

`O=C(O)[C@H](Cc1ccccc1)N1C(=O)/C(=C/c2cccc(-c3ccc(Cl)c(Cl)c3)c2)SC1=S` [Rh 2] showed an MIC ([1]; Acinetobacter baumannii ATCC BAA747, colistin (+) […], read-out: MIC) of over 64 µM, an MIC ([1]; Acinetobacter baumannii ATCC BAA19606, colistin (+) […], read-out: MIC) of over 64 µM and an MIC ([1]; Acinetobacter baumannii, ATCCBAA747) of over 128 µM. The MIC ([1]; Acinetobacter baumannii, ATCCBAA19606) was over 128 µM, the MIC ([2]; Escherichia coli O157:H7 ATCC 35150, colistin (+) […], read-out: MIC) was over 64 µM and the MIC ([2]; Escherichia coli O157:H7 ATCC 700728, colistin (+) […], read-out: MIC) was over 64 µM. For the same compound, the MIC ([2]; Escherichia coli, ATCC35150) was over 128 µM, the MIC ([2]; Escherichia coli, ATCC700728) was over 128 µM and the MIC ([3]; C. difficile HM-88) was 4 µM (≈ 2.06 µg/mL). It also gave an MIC ([3]; C. difficile HM-745) of 2 µM (≈ 1.03 µg/mL), an MIC ([3]; C. difficile HM-746) of 2 µM (≈ 1.03 µg/mL) and an MIC ([3]; C. difficile Isolate-1 NR-13427) of 2 µM (≈ 1.03 µg/mL). It also gave an MIC ([3]; C. difficile Toxigenic Strain P8 NR-32888) of 8 µM (≈ 4.12 µg/mL), an MBC ([4]; E. faecium E417 HM-965) of 64 µM (≈ 32.9 µg/mL) and an MIC ([4]; E. faecium E417 HM-965) of 4 µM (≈ 2.06 µg/mL). The MBC ([4]; E. faecium E1071 NR-28978) was 64 µM (≈ 32.9 µg/mL), the MIC ([4]; E. faecium E1071 NR-28978) was 8 µM (≈ 4.12 µg/mL) and the MBC [4, 14] was 64 µM (≈ 32.9 µg/mL). For the same compound, the MIC [4, 14] was 4 µM (≈ 2.06 µg/mL), the MBC [4, 15] was 32 µM (≈ 16.5 µg/mL) and the MIC [4, 15] was 4 µM (≈ 2.06 µg/mL). It also gave an MBC [4, 16] of 64 µM (≈ 32.9 µg/mL), an MIC [4, 16] of 4 µM (≈ 2.06 µg/mL) and an MIC50 ([5]; 15 VRSA strains, read-out: MIC 50) of 4 µM (≈ 2.06 µg/mL). The MIC90 ([5]; 15 VRSA strains, read-out: MIC 90) was 4 µM (≈ 2.06 µg/mL), the MBC ([5]; VRSA 1, read-out: MBC) was 8 µM (≈ 4.12 µg/mL) and the MIC ([5]; VRSA 1, read-out: MIC) was 4 µM (≈ 2.06 µg/mL). For the same compound, the MBC ([5]; VRSA 2, read-out: MBC) was 4 µM (≈ 2.06 µg/mL), the MIC ([5]; VRSA 2, read-out: MIC) was 4 µM (≈ 2.06 µg/mL) and the MBC ([5]; VRSA 3a, read-out: MBC) was 16 µM (≈ 8.23 µg/mL). For the same compound, the MIC ([5]; VRSA 3a, read-out: MIC) was 4 µM (≈ 2.06 µg/mL), the MBC ([5]; VRSA 3b, read-out: MBC) was 4 µM (≈ 2.06 µg/mL) and the MIC ([5]; VRSA 3b, read-out: MIC) was 4 µM (≈ 2.06 µg/mL). For the same compound, the MBC ([5]; VRSA 4, read-out: MBC) was 4 µM (≈ 2.06 µg/mL), the MIC ([5]; VRSA 4, read-out: MIC) was 4 µM (≈ 2.06 µg/mL) and the MBC ([5]; VRSA 5, read-out: MBC) was 64 µM (≈ 32.9 µg/mL). It also gave an MIC ([5]; VRSA 5, read-out: MIC) of 4 µM (≈ 2.06 µg/mL), an MBC ([5]; VRSA 6, read-out: MBC) of 16 µM (≈ 8.23 µg/mL) and an MIC ([5]; VRSA 6, read-out: MIC) of 4 µM (≈ 2.06 µg/mL). The MBC ([5]; VRSA 7, read-out: MBC) was 32 µM (≈ 16.5 µg/mL), the MIC ([5]; VRSA 7, read-out: MIC) was 4 µM (≈ 2.06 µg/mL) and the MBC ([5]; VRSA 8, read-out: MBC) was 8 µM (≈ 4.12 µg/mL). For the same compound, the MIC ([5]; VRSA 8, read-out: MIC) was 4 µM (≈ 2.06 µg/mL), the MBC ([5]; VRSA 9, read-out: MBC) was 32 µM (≈ 16.5 µg/mL) and the MIC ([5]; VRSA 9, read-out: MIC) was 8 µM (≈ 4.12 µg/mL). The MBC ([5]; VRSA 10, read-out: MBC) was 32 µM (≈ 16.5 µg/mL), the MIC ([5]; VRSA 10, read-out: MIC) was 4 µM (≈ 2.06 µg/mL) and the MBC ([5]; VRSA 11a, read-out: MBC) was 4 µM (≈ 2.06 µg/mL). The MIC ([5]; VRSA 11a, read-out: MIC) was 4 µM (≈ 2.06 µg/mL), the MBC ([5]; VRSA 11b, read-out: MBC) was 64 µM (≈ 32.9 µg/mL) and the MIC ([5]; VRSA 11b, read-out: MIC) was 4 µM (≈ 2.06 µg/mL). The MBC ([5]; VRSA 12, read-out: MBC) was 32 µM (≈ 16.5 µg/mL), the MIC ([5]; VRSA 12, read-out: MIC) was 4 µM (≈ 2.06 µg/mL) and the MBC ([5]; VRSA 13, read-out: MBC) was 64 µM (≈ 32.9 µg/mL). It also gave an MIC ([5]; VRSA 13, read-out: MIC) of 4 µM (≈ 2.06 µg/mL), an MIC ([6]; ATCC10231, C. albicans ATCC 10231, unit from abstract) of over 64 µM and an MIC ([6]; C. albicans NR 29434, unit from abstract) of over 64 µM. It also gave an MIC ([6]; C. albicans NR 29435, unit from abstract) of over 64 µM, an MIC ([6]; C. albicans NR29437, unit from abstract) of over 64 µM and an MIC ([6]; C. albicans NR29438, unit from abstract) of over 64 µM. For the same compound, the MIC ([6]; C. albicans NR 29446, unit from abstract) was over 64 µM, the MIC ([6]; C. albicans NR 29448, unit from abstract) was over 64 µM and the MIC ([6]; C. albicans NR 29449, unit from abstract) was over 64 µM. It also gave an MIC ([6]; C. albicans NR 29453, unit from abstract) of over 64 µM, an MIC ([6]; C. albicans NR 294436, unit from abstract) of over 64 µM and an MBC ([7]; B. cereus BAG1O-2 NR-28582) of 4 µM (≈ 2.06 µg/mL). It also gave an MIC ([7]; B. cereus BAG1O-2 NR-28582) of 4 µM (≈ 2.06 µg/mL), an MBC ([7]; B. cereus BAG1X1-1 NR-28575) of 2 µM (≈ 1.03 µg/mL) and an MIC ([7]; B. cereus BAG1X1-1 NR-28575) of 2 µM (≈ 1.03 µg/mL). For the same compound, the MBC ([7]; B. cereus BAG1X2-1 NR-28578) was 4 µM (≈ 2.06 µg/mL), the MIC ([7]; B. cereus BAG1X2-1 NR-28578) was 2 µM (≈ 1.03 µg/mL) and the MBC ([7]; B. cereus G9241 NR-9564) was 4 µM (≈ 2.06 µg/mL). It also gave an MIC ([7]; B. cereus G9241 NR-9564) of 4 µM (≈ 2.06 µg/mL), an MBC ([7]; B. cereus VD014 NR-22141) of 2 µM (≈ 1.03 µg/mL) and an MIC ([7]; B. cereus VD014 NR-22141) of 2 µM (≈ 1.03 µg/mL). For the same compound, the MBC ([7]; B. cereus VD115 NR-22148) was 4 µM (≈ 2.06 µg/mL), the MIC ([7]; B. cereus VD115 NR-22148) was 4 µM (≈ 2.06 µg/mL) and the MBC ([7]; B. cereus VD148 NR-22150) was 2 µM (≈ 1.03 µg/mL). It also gave an MIC ([7]; B. cereus VD148 NR-22150) of 2 µM (≈ 1.03 µg/mL), an MBC [7, 17] of 4 µM (≈ 2.06 µg/mL) and an MIC [7, 17] of 4 µM (≈ 2.06 µg/mL). The MBC [8, 18] was 2 µM (≈ 1.03 µg/mL), the MIC [8, 18] was 2 µM (≈ 1.03 µg/mL) and the MBC [8, 19] was 4 µM (≈ 2.06 µg/mL). It also gave an MIC [8, 19] of 4 µM (≈ 2.06 µg/mL), an MIC50 [9] of 2 µM (≈ 1.03 µg/mL) and an MIC90 [9] of 4 µM (≈ 2.06 µg/mL). The MIC ([10]; Escherichia coli O157:H7 ATCC 35150, PMBN (+) 4 μg/mL, read-out: MIC) was 8 µM (≈ 4.12 µg/mL), the MIC ([10]; Escherichia coli O157:H7 ATCC 700728, PMBN (+) 4 μg/mL, read-out: MIC) was over 64 µM and the MIC ([10]; Escherichia coli, ATCC35150) was over 256 µM. It also gave an MIC ([10]; Escherichia coli, ATCC700728) of over 128 µM, an MBC ([11]; read-out: MBC) of 8 µM (≈ 4.12 µg/mL) and an MIC ([11]; read-out: MIC) of 4 µM (≈ 2.06 µg/mL). The MIC ([12]; Klebsiella pneumoniae ATCC BAA 2146, colistin (+) […]) was over 64 µM, the MIC ([12]; Klebsiella pneumoniae, BAA2146) was over 128 µM and the MIC ([13]; E.coli 1411) was over 64 µM. For the same compound, the MIC ([13]; E.coli 1411 SM (Δ acrAB, AcrAB efflux pump deficient)) was over 64 µM.
